Entries after “also recorded” stand apart in the source; their conditions may differ. Where a name gives a salt, the structure may show the parent alone.
How the values were obtained:
adipose tissue = details: Pilkington, Cernohorsky, Muhlbachova, Wenkeova et al.; cited from earlier work
human adipocytes = experiment: Test of lipolytic capacity on human adipocytes (glycerol release); assay type: cell-based; details: for maximal lipolytic response elicited: glycerol released by human abdominal subcutaneous adipocytes, 90 min at 37° C., basal 0%, isoproterenol 100%
Excerpt: The lipolytic capacity of the Synephrine Derivatives can be tested in human adipocytes. For the sake of convenience, for Examples 21 to 24, the known 2-isopropylamino-1-(4-hydroxyphenyl)-ethanol hydrochloride (Formula shown in Example 12, above, also known as isopropylnorsynephrine hydrochloride) is used here as a non-limiting example of a Synephrine Derivative.
In this example, the lipolytic property of isopropylnorsynephrine hydrochloride was compared to that of synephrine hydrochloride (Formula shown in Example 15). The index of lipolytic activity chosen was the glycerol released by freshly originated human adipocytes with reference to basal (0%, without any drug) and maximal (100%) responses to a standard lipolytic reference: isoproterenol.
Adipocytes were isolated from samples of subcutaneous abdominal adipose depot freshly obtained during abdominal lipectomy. The surgical interventions were conducted under general anaesthesia on ten healthy women undergoing abdominal plastic surgery. The human samples were transferred in less than 15 min to the laboratory for adipocyte preparation. The human abdominal subcutaneous adipocytes were obtained by collagenase digestion of the fresh samples of adipose tissue. The isolation, washing, handling and distribution of fat cells were carried out according to the technique described in Carpene, “Assays of Adrenergic Receptors: Including Lipolysis and Binding Measurements”, from Methods in Molecular Biology, supra. Briefly, extemporaneous dilutions of the tested drugs were added in 4 μl in plastic vials which received 400 μl of freshly prepared adipocyte suspension. The given concentrations were the final concentrations in which the cells were incubated for 90 min at 37° C. under gentle shaking. At the end of the experiment, the glycerol released by the cells was determined on an aliquot as described in Carpene, Id.
The mean lipid content in the incubation vials was 17.6±1.0 mg/400 μl, which corresponded to approximately 500,000 cells/vial.

β-adrenergic = details: literature; cited from earlier work
[1] = literature; cited from earlier work
β3-adrenoceptors = target: T1, β3-adrenoceptors (Rattus norvegicus, UniProt P26255); details: Carpene et al. 1999; cited from earlier work
T1 construct: comparative studies in mammalian fat cells; host or cells: mammalian fat cells (adipocytes), endogenous receptor
T1 sequence (P26255 whole entry): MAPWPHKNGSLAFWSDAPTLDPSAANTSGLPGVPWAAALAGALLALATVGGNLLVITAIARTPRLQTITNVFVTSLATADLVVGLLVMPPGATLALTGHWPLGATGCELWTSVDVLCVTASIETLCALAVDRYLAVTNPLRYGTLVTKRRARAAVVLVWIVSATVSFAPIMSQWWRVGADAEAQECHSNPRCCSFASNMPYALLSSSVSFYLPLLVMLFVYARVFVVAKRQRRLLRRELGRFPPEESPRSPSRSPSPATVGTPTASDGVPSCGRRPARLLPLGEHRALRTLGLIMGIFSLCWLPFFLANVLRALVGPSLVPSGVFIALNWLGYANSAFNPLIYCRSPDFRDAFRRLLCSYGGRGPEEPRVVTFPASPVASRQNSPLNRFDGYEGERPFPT

rat adipocyte = details: Carpene et al.; cited from earlier work
human fat cells = details: Carpene et al.; cited from earlier work
[2] = long use in China; Zhao et al. 1989; cited from earlier work
[3] = ratio to synephrine hydrochloride

CCCCNCC(O)c1ccc(O)cc1 (stereo not drawn) [Bamethan, 2-butylamino-1-(4-hydroxyphenyl)-ethanol]
lipid mobilization properties in vitro (adipose tissue): have lipid mobilization properties in vitro

CCNCC(O)c1ccc(O)cc1 (stereo not drawn) [ethylnorsynephrine, 2-ethylamino-1-(4-hydroxyphenyl)-ethanol]
lipid mobilization properties in vitro (adipose tissue): have lipid mobilization properties in vitro

CC(C)NCC(O)c1ccc(O)cc1 (stereo not drawn) [isopropylnorsynephrine hydrochloride, 2-Isopropylamino-1-(4-hydroxyphenyl)-ethanol hydrochloride]
lipolytic effect at low concentration versus synephrine hydrochloride (human adipocytes; 1μg/mL versus synephrine hydrochloride at 100 μg/mL): still far greater than that of synephrine hydrochloride | maximal lipolytic response elicited (human adipocytes; FIG. 1): ~60% | lipolytic property on human fat cells (in words) (human adipocytes; human adipocytes, FIG. 1, hydrochloride): strong lipolytic property; also recorded: superior than synephrine hydrochloride | capacity to stimulate human adipocytes lipolysis compared to synephrine hydrochloride (human adipocytes; [3]): 2 times | lipolytic potency relative to synephrine hydrochloride (human adipocytes; [3]): ~100 times

CC(C)NCC(O)c1ccc(O)cc1 (stereo not drawn) [isopropylnorsynephrine, 2-isopropylamino-1-(4-hydroxyphenyl)-ethanol]
adrenergic activity (in words) (β-adrenergic): pure β-adrenergic activity | lipid mobilization properties in vitro (adipose tissue): have lipid mobilization properties in vitro | plasma free fatty acid level in vivo [1]: can increase plasma free fatty acid level in vivo

NCC(O)c1ccc(O)cc1 (stereo not drawn) [octopamine, 2-amino-1-(4-hydroxyphenyl)-ethanol]
selective action on β3-adrenoceptors (β3-adrenoceptors): can selectively act on β3-adrenoceptors; also recorded: selective activation of β3-adrenoceptor | rat adipocyte lipolysis (rat adipocyte): effective | effect on human fat cells (lipolysis) (human fat cells): ineffective

CC(C)(Cc1ccccc1)NCC(O)c1ccc(O)cc1 (stereo not drawn) [phenyl-t-butylnorsynephrine, 2-(phenyl-t-butylamino)-1-(4-hydroxyphenyl)-ethanol]
lipid mobilization properties in vitro (adipose tissue): have lipid mobilization properties in vitro

CCCNCC(O)c1ccc(O)cc1 (stereo not drawn) [propylnorsynephrine, 2-propylamino-1-(4-hydroxyphenyl)-ethanol]
lipid mobilization properties in vitro (adipose tissue): have lipid mobilization properties in vitro

CNCC(O)c1ccc(O)cc1 (stereo not drawn) [synephrine hydrochloride, 2-Methylamino-1-(4-hydroxyphenyl)-ethanol hydrochloride, reference compound]
maximal lipolytic response elicited (human adipocytes; FIG. 1): ~30%

CNCC(O)c1ccc(O)cc1 (stereo not drawn) [synephrine, 2-methylamino-1-(4-hydroxyphenyl)-ethanol]
adrenergic activity (in words) (β-adrenergic): both α- and β-adrenergic activity | lipid mobilization properties in vitro (adipose tissue): have lipid mobilization properties in vitro | plasma free fatty acid level in vivo [1]: can increase plasma free fatty acid level in vivo | effect on blood pressure [2]: increase blood pressure

CC(C)(C)NCC(O)c1ccc(O)cc1 (stereo not drawn) [tert-butylnorsynephrine, 2-tert-butylamino-1-(4-hydroxyphenyl)-ethanol]
lipid mobilization properties in vitro (adipose tissue): have lipid mobilization properties in vitro
